The record followed here is patent US11512073B2, “Benzimidazole derivatives, pharmaceutical composition comprising the same, and use thereof” (Chongqing University of Arts and Sciences, priority 2020, dated 2022).

Experiment [1] relates to HEK293T cells. In words: HA-ubiquitin immunoprecipitation, H2A/H2AX ubiquitination. Conditions: 20 μM compound 7a for 24 h. In kind it is cell-based. As to the method:
FIG. 6A: MDA-MB-231 and MDA-MB-468 were treated with indicated concentrations of compound 7a for 48 h, and then the immunofluorescence analysis was performed to detect γH2AX signal, the histone H2AX phosphorylation representing DSBs. Scale bar: 100 μm. FIG. 6B: γH2AX positive cells in (FIG. 6A) were counted and presented in the histogram. FIGS. 6C and 6D: following treatment with different concentrations (FIG. 6C) and times (FIG. 6D) of compound 7a, treated cell were lysed and phosphorylation/activation levels of ATM, NBS1, SMC1, γH2AX were examined by western blotting. Additionally, RNF8 and DNA repair proteins such as BRCA2 and RAD51 were detected using western. β-tubulin was employed as a loading control. […] P62 signal was measured by immunofluorescence analysis. […] HA-Ub was immunoprecipitated with HA binding beads and ubiquitinated H2A/H2AX was detected with anti-H2A/H2AX. […]
MDA-MB-231 and MDA-MB-468 cells were treated with the compound 7a (0, 5, 10 and 20 μmol/L) for 48 h, total protein was extracted using RIPA buffer (Beyotime, Shanghai, China) supplemented with protease/phosphatase inhibitor cocktail (Roche, Mannheim, Germany) at 4° C. for 30 min. The protein concentration was quantified by the BCA protein assay kit (Beyotime). […] The objective protein signal was obtained using an odyssey two-color infrared fluorescence imaging system (Li-cor, NE, USA). […]

The subject of experiment [2] is MDA-MB-468 cells. The experiment in a line: MTT cell viability assay. The experiment is classed as cell-based. Conditions: Homo sapiens. As to the method: (§1) Compounds were dissolved in a hydrous dimethylsulfoxide (DMSO, Life technologies) to obtain a 50 mM stock solution, which was then added to the culture medium at a concentration range of 6.25-100 μM. Cells were treated with compounds at indicated concentrations for 48 h, and 0.1% DMSO was used as the vehicle. Z-VAD-FMK was purchased from Selleckchem (Houston, Tex.); The reagents including 3-(4,5-dimethylthiazol-2-yl)-2,5-diphenyltetrazolium bromide (MTT), dimethyl sulfoxide (DMSO), penicillin, streptomycin, propidium iodide (PI) were purchased from Sigma-Aldrich (MO, USA); All the primary antibodies used in this study were from Cell Signaling Technology (MA, USA) and the secondary antibodies were from LI-COR Biosciences (NE, USA).
(§2) Human triple negative breast cancer cell lines MDA-MB-231 and MDA-MB-468 were purchased from the American Type Culture Collection (ATCC, VA, USA). These cells were cultured in high-glucose DMEM (Gibco, USA) supplemented with 10% fetal bovine serum (FBS, Gibco) and 1% penicillin/streptomycin (Gibco) at 37° C. in a humidified incubator containing 5% CO2.
(§3) The antiproliferative activity of compounds was measured with the MTT assay. […] The absorbance value was determined at 570 nm using a microplate reader (Bio-Tek, VT, USA). Data were analyzed by GraphPad Prism 6. […]
On the technique in general: Formazan colour is commonly taken as a measure of viable cells.

The subject of experiment [3] is MDA-MB-231 cells. The experiment in a line: MTT cell viability assay. In kind it is cell-based. Conditions: Homo sapiens. As to the method: as §1, §2, §3
Experiment [4] has as its system MDA-MB-231 and MDA-MB-468 cells. In words: Cell cycle analysis by flow cytometry. Conditions: 48 h. The experiment is classed as cell-based, Human. The procedure: Cells in a logarithmic growth phase were harvested and seeded into six-well plates with 30% cell density and cultured overnight in an incubator. Once adhered to the bottom of the plate, cells were treated with different doses of compound 7a for 48 h, and then employed in flow cytometry analysis. For cell cycle assay, the collected cells were washed with phosphate-buffered saline (PBS) and fixed with 70% cold ethanol in 4° C. for 24 h. After washing three times of PBS, the fixed cells were incubated in 200 μL PBS solution containing 1 μL propidium iodide (BD, CA, USA) and 1 μL RNase (Sigma Aldrich, USA) at 37° C. for 0.5 h. Finally, cells were analyzed using BD Accuri™ C6 flow cytometry (BD Biosciences, USA). For the cell apoptosis assay, after the cells were harvested and washed twice with PBS, the percentage of apoptotic cells were measured using an Annexin V-FITC/PI Apoptosis Assay Kit (BD Biosciences, USA). The BD Accuri™ C6 flow cytometry was used to analyze the apoptosis process. The FlowJo software was used to analyze the cell cycle arrest and apoptotic rate.
For orientation: Flow cytometry measures light scatter and fluorescence of single cells or particles in a stream.

Consider `O=C(NC1CCCCC1)c1[nH]cnc1-c1nc2ccccc2[nH]1` [Compound 7a], for which the “formation of H2A poly-ubiquitin chains” value in experiment [1] is “significantly reduced”. Further, the values for the IC50 in experiment [2] and in experiment [3] were 6 µM and 8.3 µM, respectively. For the same compound, the cell cycle distribution entry in experiment [4] was “induced cell cycle arrest at S-phase”.

Usually IC50 stands for the concentration that inhibits the measured activity by half. Low values mean higher potency, high ones lower potency.
